Measured values reported in patent US11311520B2, “Substituted dihydroimidazopyridinediones as MKNK1 and MKNK2 inhibitors” (Bayer Pharma Aktiengesellschaft, priority 2017, dated 2022).

What follows are compounds tested against human full-length MKNK1 (Homo sapiens (Human), UniProt Q9BUB5, T344D) (assay: MKNK1 kinase high ATP assay (TR-FRET)). Settings: 2 mM ATP, 15 min preincubation with enzyme, GST-MKNK1 (T344D).
Assay type: biochemical
Protocol: MKNK1 Kinase High ATP Assay
MKNK1-inhibitory activity at high ATP of compounds of the present invention after their preincubation with MKNK1 was quantified employing the TR-FRET-based MKNK1 high ATP assay as described in the following paragraphs.
A recombinant fusion protein of Glutathione-S-Transferase (GST, N-terminally) and human full-length MKNK1 (amino acids 1-424 and T344D of accession number BAA 19885.1), expressed in insect cells using baculovirus expression system and purified via glutathione sepharose affinity chromatography, was purchased from Carna Biosciences (product no 02-145) and used as enzyme. As substrate for the kinase reaction the biotinylated peptide biotin-Ahx-IKKRKLTRRKSLKG (SEQ ID NO: 1) (C-terminus in amide form) was used, which can be purchased e.g. from the company Biosyntan (Berlin-Buch, Germany)
For the assay 50 nL of a 100 fold concentrated solution of the test compound in DMSO was pipetted into a black low volume 384 well microtiter plate (Greiner Bio-One, Frickenhausen, Germany), 2 μL of a solution of MKNK1 in aqueous assay buffer [50 mM HEPES pH 7.5, 5 mM MgCl2, 1.0 mM dithiothreitol, 0.005% (v/v) Nonidet-P40 (Sigma)] was added and the mixture was incubated for […] at 22° C. to allow pre-binding of the test compounds to the enzyme before the start of the kinase reaction. Then the kinase reaction was started by the addition of 3 μL of a solution of adenosine-tri-phosphate (ATP, 3.3 mM=>final conc. in the 5 μL assay volume is 2 mM) and substrate (0.1 μM=>final conc. in the 5 μL assay volume is 0.06 μM) in assay buffer and the resulting mixture was incubated for a reaction time of 30 min at 22° C. The concentration of MKNK1 was adjusted depending of the activity of the enzyme lot and was chosen appropriate to have the assay in the linear range, typical concentrations were in the range of 0.003 μg/mL. The reaction was stopped by the addition of 5 μL of a solution of TR-FRET detection reagents (5 nM streptavidine-XL665 [Cisbio Bioassays, Codolet, France] and 1 nM anti-ribosomal protein S6 (pSer236)-antibody from Invitrogen [#44921G] and 1 nM LANCE EU-W1024 labeled ProteinG [Perkin-Elmer, product no. AD0071]) in an aqueous EDTA-solution (100 mM EDTA, 0.1% (w/v) bovine serum albumin in 50 mM HEPES pH 7.5).
The resulting mixture was incubated for 1 h at 22° C. to allow the formation of complex between the phosphorylated biotinylated peptide and the detection reagents. Subsequently the amount of phosphorylated substrate was evaluated by measurement of the resonance energy transfer from the Eu-chelate to the streptavidine-XL. Therefore, the fluorescence emissions at 620 nm and 665 nm after excitation at 350 nm were measured in a TR-FRET reader, e.g. a Rubystar (BMG Labtechnologies, Offenburg, Germany) or a Viewlux (Perkin-Elmer). The ratio of the emissions at 665 nm and at […] was taken as the measure for the amount of phosphorylated substrate. The data were normalised (enzyme reaction without inhibitor=0% inhibition, all other assay components but no enzyme=100% inhibition).

Sequence of human full-length MKNK1 (Q9BUB5 other isoform, or with tags, fused parts or gaps T344D): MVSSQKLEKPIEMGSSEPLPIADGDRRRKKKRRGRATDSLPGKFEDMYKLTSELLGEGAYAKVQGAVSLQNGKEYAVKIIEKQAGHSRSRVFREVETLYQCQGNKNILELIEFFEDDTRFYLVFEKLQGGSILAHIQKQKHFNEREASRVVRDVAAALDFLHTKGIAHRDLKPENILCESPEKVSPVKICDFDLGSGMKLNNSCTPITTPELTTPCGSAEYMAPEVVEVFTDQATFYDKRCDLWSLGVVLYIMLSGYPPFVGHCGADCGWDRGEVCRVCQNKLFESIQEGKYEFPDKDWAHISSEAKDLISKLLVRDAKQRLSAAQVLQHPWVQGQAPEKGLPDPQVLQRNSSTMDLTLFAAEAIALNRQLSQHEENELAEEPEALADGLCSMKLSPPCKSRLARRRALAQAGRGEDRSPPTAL

Row | Compound | IC50
1 | Cc1cc(Nc2ncnc3c2CN(C(=O)OC(C)(C)C)C3)c(=O)n2c1C(=O)NC21CCCCC1 [Example 35, tert-Butyl 4-[(8′-methyl-1′,5′-dioxo-1′,5′-dihydro-2′H-spiro[cyclohexane-1,3′-imidazo[1,5-a]pyridin]-6′-yl)amino]-5,7-dihydro-6H-pyrrolo[3,4-d]pyrimidine-6-carboxylate] | 4.1 nM
2 | Cc1cc(Nc2ncnc3c2CNC3)c(=O)n2c1C(=O)NC21CCCCC1 [Example 36, 6′-(6,7-Dihydro-5H-pyrrolo[3,4-d]pyrimidin-4-ylamino)-8′-methyl-2′H-spiro[cyclohexane-1,3′-imidazo[1,5-a]pyridine]-1′,5′-dione] | 19.1 nM
3 | Cc1cc(Nc2ncnc3nc(CC(F)(F)F)[nH]c23)c(=O)n2c1C(=O)NC21CCCCC1 [Example 37, 8′-Methyl-6′-{[8-(2,2,2-trifluoroethyl)-7H-purin-6-yl]amino}-2′H-spiro[cyclohexane-1,3′-imidazo[1,5-a]pyridine]-1′,5′-dione] | 10.3 nM
4 | Cc1cc(Nc2ncnc3oc(C)c(C)c23)c(=O)n2c1C(=O)NC21CCCCC1 [Example 38, 6′-[(5,6-Dimethylfuro[2,3-d]pyrimidin-4-yl)amino]-8′-methyl-2′H-spiro[cyclohexane-1,3′-imidazo[1,5-a]pyridine]-1′,5′-dione] | 79.9 nM
5 | Cc1cc(Nc2ncnc(NC(=O)C3CC3)n2)c(=O)n2c1C(=O)NC2(C)C [Example 40, N-[4-[(3,3,8-Trimethyl-1,5-dioxo-1,2,3,5-tetrahydroimidazo[1,5-a]pyridin-6-yl)amino]-1,3,5-triazin-2-yl]cyclopropanecarboxamide] | 20.7 nM
6 | Cc1cc(Nc2ncnc3cccc(F)c23)c(=O)n2c1C(=O)NC21CCCCC1 [Example 41, 6′-[(5-Fluoroquinazolin-4-yl)amino]-8′-methyl-2′H-spiro[cyclohexane-1,3′-imidazo[1,5-a]pyridine]-1′,5′-dione] | 14 nM
7 | Cc1cc(Nc2ncnc3sc(C(=O)N4C[C@H]5C[C@@H]4CN5C)cc23)c(=O)n2c1C(=O)NC21CCCCC1 [Example 42, 8′-Methyl-6′-[(6-{[(1R,4R)-5-methyl-2,5-diazabicyclo[2.2.1]hept-2-yl]carbonyl}thieno[2,3-d]pyrimidin-4-yl)amino]-2′H-spiro[cyclohexane-1,3′-imidazo[1,5-a]pyridine]-1′,5′-dione] | 1.9 nM
8 | Cc1cc(Nc2ncnc3sc(C(=O)N4C[C@@H]5C[C@H]4CN5C)cc23)c(=O)n2c1C(=O)NC21CCCCC1 [Example 43, 8′-Methyl-6′-[(6-{[(1S,4S)-5-methyl-2,5-diazabicyclo[2.2.1]hept-2-yl]carbonyl}thieno[2,3-d]pyrimidin-4-yl)amino]-2′H-spiro[cyclohexane-1,3′-imidazo[1,5-a]pyridine]-1′,5′-dione] | 2.9 nM
9 | Cc1cc(Nc2ncnc3c2ncn3CCO)c(=O)n2c1C(=O)NC21CCCCC1 [Example 44, 6′-{[9-(2-Hydroxyethyl)-9H-purin-6-yl]amino}-8′-methyl-2′H-spiro[cyclohexane-1,3′-imidazo[1,5-a]pyridine]-1′,5′-dione] | 465 nM
10 | CCOC(=O)Cn1cnc2c(Nc3cc(C)c4n(c3=O)C3(CCCCC3)NC4=O)ncnc21 [Example 45, Ethyl {6-[(8′-methyl-1′,5′-dioxo-1′,5′-dihydro-2′H-spiro[cyclohexane-1,3′-imidazo[1,5-a]pyridin]-6′-yl)amino]-9H-purin-9-yl}acetate] | 603 nM
11 | Cc1cc(Nc2ncnc3ccc(Cl)cc23)c(=O)n2c1C(=O)NC21CCCCC1 [Example 46, 6′-[(6-Chloroquinazolin-4-yl)amino]-8′-methyl-2′H-spiro[cyclohexane-1,3′-imidazo[1,5-a]pyridine]-1′,5′-dione] | 4.1 nM
12 | Cc1cc(Nc2ncnc3c2ncn3[C@H]2O[C@@H](CO)[C@H](O)[C@H]2O)c(=O)n2c1C(=O)NC21CCCCC1 [Example 47, N-[9-(beta-L-Arabinofuranosyl)-9H-purin-6-yl]-8′-methyl-1′,5′-dioxo-1′,5′-dihydro-2′H-spiro[cyclohexane-1,3′-imidazo[1,5-a]pyridin]-6′-amine] | 47.2 nM
13 | Cc1cc(Nc2ncnc3c2ncn3CC(=O)O)c(=O)n2c1C(=O)NC21CCCCC1 [Example 48, {6-[(8′-Methyl-1′,5′-dioxo-1′,5′-dihydro-2′H-spiro[cyclohexane-1,3′-imidazo[1,5-a]pyridin]-6′-yl)amino]-9H-purin-9-yl}acetic acid] | 29.4 nM
14 | Cc1cc(Nc2ncnc3c2ncn3CC(=O)N(C)C)c(=O)n2c1C(=O)NC21CCCCC1 [Example 49, N,N-Dimethyl-2-{6-[(8′-methyl-1′,5′-dioxo-1′,5′-dihydro-2′H-spiro[cyclohexane-1,3′-imidazo[1,5-a]pyridin]-6′-yl)amino]-9H-purin-9-yl}acetamide] | 490 nM
15 | Cc1cc(Nc2ncnc3c2ncn3CC(=O)N(C)CCN(C)C)c(=O)n2c1C(=O)NC21CCCCC1 [Example 50] | 950 nM
16 | Cc1cc(Nc2ncnc3scnc23)c(=O)n2c1C(=O)NC21CCCCC1 [Example 51, 8′-Methyl-6′-([1,3]thiazolo[5,4-d]pyrimidin-7-ylamino)-2′H-spiro[cyclohexane-1,3′-imidazo[1,5-a]pyridine]-1′,5′-dione] | 2.9 nM
17 | Cc1cc(Nc2ncnc3occc23)c(=O)n2c1C(=O)NC21CCCCC1 [Example 52, 6′-(Furo[2,3-d]pyrimidin-4-ylamino)-8′-methyl-2′H-spiro[cyclohexane-1,3′-imidazo[1,5-a]pyridine]-1′,5′-dione] | 13 nM
18 | Cc1cc(Nc2ncnc(NC(=O)C3CC3)n2)c(=O)n2c1C(=O)NC21CCCC1 [Example 53, N-{4-[(8′-Methyl-1′,5′-dioxo-1′,5′-dihydro-2′H-spiro[cyclopentane-1,3′-imidazo[1,5-a]pyridin]-6′-yl)amino]-1,3,5-triazin-2-yl}cyclopropanecarboxamide] | 2.4 nM
19 | Cc1cc(Nc2ncnc(N)n2)c(=O)n2c1C(=O)NC21CCCC1 [Example 54, 6′-[(4-Amino-1,3,5-triazin-2-yl)amino]-8′-methyl-2′H-spiro[cyclopentane-1,3′-imidazo[1,5-a]pyridine]-1′,5′-dione] | 5.7 nM
20 | Cc1cc(Nc2ncnc3[nH]ccc23)c(=O)n2c1C(=O)NC21CCCC1 [Example 55, 8′-Methyl-6′-(7H-pyrrolo[2,3-d]pyrimidin-4-ylamino)-2′H-spiro[cyclopentane-1,3′-imidazo[1,5-a]pyridine]-1′,5′-dione] | 0.3 nM
21 | Cc1cc(Nc2ncnc3sccc23)c(=O)n2c1C(=O)NC21CCCC1 [Example 56, 8′-Methyl-6′-(thieno[2,3-d]pyrimidin-4-ylamino)-2′H-spiro[cyclopentane-1,3′-imidazo[1,5-a]pyridine]-1′,5′-dione] | 0.1 nM
22 | Cc1cc(Nc2ccnc3[nH]cnc23)c(=O)n2c1C(=O)NC21CCCCC1 [Example 57, 6′-(3H-Imidazo[4,5-b]pyridin-7-ylamino)-8′-methyl-2′H-spiro[cyclohexane-1,3′-imidazo[1,5-a]pyridine]-1′,5′-dione] | 6.2 nM
23 | Cc1cc(Nc2ncnc3sc(C(=O)O)cc23)c(=O)n2c1C(=O)NC21CCCC1 [Example 58, 4-[(8′-Methyl-1′,5′-dioxo-1′,5′-dihydro-2′H-spiro[cyclopentane-1,3′-imidazo[1,5-a]pyridin]-6′-yl)amino]thieno[2,3-d]pyrimidine-6-carboxylic acid] | 18.8 nM
24 | Cc1cc(Nc2ncnc3sc(C(=O)NCCN(C)C)cc23)c(=O)n2c1C(=O)NC21CCCC1 [Example 59, N-[2-(Dimethylamino)ethyl]-4-[(8′-methyl-1′,5′-dioxo-1′,5′-dihydro-2′H-spiro[cyclopentane-1,3′-imidazo[1,5-a]pyridin]-6′-yl)amino]thieno[2,3-d]pyrimidine-6-carboxamide] | 2.7 nM
25 | Cc1cc(Nc2ncnc3sc(C(=O)N(C)CCN(C)C)cc23)c(=O)n2c1C(=O)NC21CCCC1 [Example 60, N-[2-(Dimethylamino)ethyl]-N-methyl-4-[(8′-methyl-1′,5′-dioxo-1′,5′-dihydro-2′H-spiro[cyclopentane-1,3′-imidazo[1,5-a]pyridin]-6′-yl)amino]thieno[2,3-d]pyrimidine-6-carboxamide] | 6.3 nM
